Tests used:
Assay in all cases: Indoor herbicide activity determination, Seed Treatment; pre-emergence (soil spray)
Type in all cases: in vivo
Aegilops tauschii = conditions: read-out: Herbicidal activities (inhibition rate) Aegilops tauschii; for inhibition at 120 g/ha: 120 g a.i./ha; for inhibition at 60 g/ha: 60 g a.i./ha
Description: (§1) The testing method for herbicide activity of the compound of the present invention was as follows:
(§2) Seed Treatment; pre-emergence: quantitative seeds of gramineous weeds (Echinochloa crusgalli, Eleusine indica, Digitaria sanguinalis, Alopecurus japonicus, Beckmannia syzigachne, Leptochloa chinensis, Polypogon fugax, Alopecurus aequalis, Lolium multiflorum, Poa annua, Aegilops tauschii, Avena fatua, Alopecurus myosuroides, Alopecurus japonicus and Alopecurus aequalis), broad-leaved weeds (Eclipta prostrata, Amaranthus retroflexus, Rorippa indica, Malachium aquaticum, Veronica polita, Conyza canadensis, Sesbania cannabina, Sagittariatrifolia and Schoenoplectiella juncoides), and Cyperus iria were sown in plastic pots having a diameter of 7 cm and holes at the bottom and filled with nutrient soil (sandy soil, pH 6.1, organic matter 1%) respectively, the seeds were covered with an appropriate amount of soil after being sown, then the soil was wetted with water from the bottom, the seeds were cultured in a constant-temperature illuminated culture room for 24 h, and the soil was sprayed by using a 3WP-2000 traveling spray tower produced by the Nanjing Institute of Agricultural Mechanization of the Ministry of Agriculture, where a rotational speed of a main shaft was 96 mm/r, a spray height was 300 mm, an effective spraying range of a nozzle was 350 mm, a spray area was 0.35 m^2, and a flow rate at the nozzle was 390 mL/min.
(§3) Post-emergence: an appropriate quantity of seeds of gramineous weeds (Echinochloa crusgalli, Eleusine indica, Digitaria sanguinalis, Alopecurus japonicus, Beckmannia syzigachne, Leptochloa chinensis, Polypogon fugax, Alopecurus aequalis, Lolium multiflorum, Poa annua, Aegilops tauschii, Avena fatua, Alopecurus myosuroides, Alopecurus japonicus and Alopecurus aequalis), broad-leaved weeds (Eclipta prostrata, Amaranthus retroflexus, Rorippa indica, Malachium aquaticum, Veronica polita, Conyza canadensis, Sesbania cannabina, Sagittariatrifolia and Schoenoplectiella juncoides), and Cyperus iria were sown in plastic pots having a diameter of 7 cm and holes at the bottom and filled with nutrient soil (sandy soil, pH 6.1, organic matter 1%) respectively, the seeds were covered with an appropriate amount of soil after being sown, then the soil was wetted with water from the bottom, the seeds were cultured in a constant-temperature illuminated culture room until a 2-4 leaf stage, and stems and leaves underwent spray treatment. After the treatment, the test materials were placed in a laboratory and cultured in the constant-temperature illuminated culture room after the liquid was naturally dry in the shade, and results were determined 21 days later. Inhibition rate of fresh weight % = (1−(fresh weight of treated plants)/(fresh weight of control plants)) × 100% [formula]

Alopecurus japonicus = system: Alopecurus japonicus
Description: as §1, §2, §3

Lolium multiflorum = system: Lolium multiflorum
Description: as §1, §2, §3

Alopecurus myosuroides = system: Alopecurus myosuroides
Description: as §1, §2, §3

Eleusine indica = system: Eleusine indica
Description: as §1, §2, §3

Leptochloa chinensis = system: Leptochloa chinensis
Description: as §1, §2, §3

Eclipta prostrata = conditions: read-out: Herbicidal activities (inhibition rate) Eclipta prostrata; for inhibition at 120 g/ha: 120 g a.i./ha; for inhibition at 60 g/ha: 60 g a.i./ha
Description: as §1, §2, §3

Cyperus iria = conditions: read-out: Herbicidal activities (inhibition rate) Cyperus iria; for inhibition at 120 g/ha: 120 g a.i./ha; for inhibition at 60 g/ha: 60 g a.i./ha
Description: as §1, §2, §3

Row | SMILES | inhibition at 120 g/ha (Aegilops tauschii) [%] | Herbicidal activities, Alopecurus japonicus (inhibition rate class) (Alopecurus japonicus; Dosage 240 g a.i./ha) | Herbicidal activities, Lolium multiflorum (inhibition rate class) (Lolium multiflorum; Dosage 240 g a.i./ha) | Herbicidal activities, Alopecurus myosuroides (inhibition rate class) (Alopecurus myosuroides; Dosage 240 g a.i./ha) | Herbicidal activities, Eleusine indica (inhibition rate class) (Eleusine indica; Dosage 240 g a.i./ha) | Herbicidal activities, Leptochloa chinensis (inhibition rate class) (Leptochloa chinensis; Dosage 240 g a.i./ha) | inhibition at 120 g/ha (Eclipta prostrata) [%] | inhibition at 120 g/ha (Cyperus iria) [%] | inhibition at 60 g/ha (Aegilops tauschii) [%] | Herbicidal activities, Alopecurus japonicus (inhibition rate class) (Alopecurus japonicus; Dosage 120 g a.i./ha) | Herbicidal activities, Lolium multiflorum (inhibition rate class) (Lolium multiflorum; Dosage 120 g a.i./ha) | Herbicidal activities, Alopecurus myosuroides (inhibition rate class) (Alopecurus myosuroides; Dosage 120 g a.i./ha) | Herbicidal activities, Eleusine indica (inhibition rate class) (Eleusine indica; Dosage 120 g a.i./ha) | Herbicidal activities, Leptochloa chinensis (inhibition rate class) (Leptochloa chinensis; Dosage 120 g a.i./ha) | inhibition at 60 g/ha (Eclipta prostrata) [%] | inhibition at 60 g/ha (Cyperus iria) [%]
1 | C=CC1(C(=O)N[C@H]2C[C@@H](C(=O)OCC[S+](C)[O-])C2)CC(c2cc(F)cc(F)c2)=NO1 (some centres unmarked) [I-9] | 80 to 100 | A (A indicates that the inhibition rate was greater than or equal to 80% to 100%) | A (A indicates that the inhibition rate was greater than or equal to 80% to 100%) | A (A indicates that the inhibition rate was greater than or equal to 80% to 100%) | A (A indicates that the inhibition rate was greater than or equal to 80% to 100%) | A (A indicates that the inhibition rate was greater than or equal to 80% to 100%) | 60 to 80 | 80 to 100 |  |  |  |  |  |  |  | 
2 | C=CC1(C(=O)N[C@H]2C[C@@H](C(=O)OCCS(C)(=O)=O)C2)CC(c2cc(F)cc(F)c2)=NO1 (some centres unmarked) [I-10] | 80 to 100 | A (A indicates that the inhibition rate was greater than or equal to 80% to 100%) | A (A indicates that the inhibition rate was greater than or equal to 80% to 100%) | A (A indicates that the inhibition rate was greater than or equal to 80% to 100%) | A (A indicates that the inhibition rate was greater than or equal to 80% to 100%) | A (A indicates that the inhibition rate was greater than or equal to 80% to 100%) | 60 to 80 | 80 to 100 |  |  |  |  |  |  |  | 
3 | C=C[C@]1(C(=O)N[C@H]2C[C@@H](C(=O)NOC)C2)CC(c2cc(F)cc(F)c2)=NO1 [I-23] |  |  |  |  |  |  |  |  | 80 to 100 | A (A indicates that the inhibition rate was greater than or equal to 80% to 100%) | A (A indicates that the inhibition rate was greater than or equal to 80% to 100%) | A (A indicates that the inhibition rate was greater than or equal to 80% to 100%) | A (A indicates that the inhibition rate was greater than or equal to 80% to 100%) | A (A indicates that the inhibition rate was greater than or equal to 80% to 100%) | 60 to 80 | 80 to 100
4 | C=C[C@]1(C(=O)N[C@H]2C[C@@H](C(=O)OCCCCC)C2)CC(c2cc(F)cc(Cl)c2)=NO1 [I-31] |  |  |  |  |  |  |  |  | 60 to 80 |  |  | A (A indicates that the inhibition rate was greater than or equal to 80% to 100%) | A (A indicates that the inhibition rate was greater than or equal to 80% to 100%) | A (A indicates that the inhibition rate was greater than or equal to 80% to 100%) | 80 to 100 | 60 to 80
5 | C=C[C@]1(C(=O)N[C@H]2C[C@@H](C(=O)OCC=CC)C2)CC(c2cc(F)cc(Cl)c2)=NO1 [I-32] |  |  |  |  |  |  |  |  | 60 to 80 | B (B indicates that the inhibition rate was greater than or equal to 60% to less than 80%) | B (B indicates that the inhibition rate was greater than or equal to 60% to less than 80%) | A (A indicates that the inhibition rate was greater than or equal to 80% to 100%) | A (A indicates that the inhibition rate was greater than or equal to 80% to 100%) | A (A indicates that the inhibition rate was greater than or equal to 80% to 100%) | 80 to 100 | 60 to 80
6 | C=C[C@]1(C(=O)N[C@H]2C[C@@H](C(=O)O[C@H](C)COC)C2)CC(c2cc(F)cc(Cl)c2)=NO1 [I-33] |  |  |  |  |  |  |  |  | 60 to 80 | A (A indicates that the inhibition rate was greater than or equal to 80% to 100%) | A (A indicates that the inhibition rate was greater than or equal to 80% to 100%) | A (A indicates that the inhibition rate was greater than or equal to 80% to 100%) | A (A indicates that the inhibition rate was greater than or equal to 80% to 100%) | A (A indicates that the inhibition rate was greater than or equal to 80% to 100%) | 80 to 100 | 60 to 80
7 | C=C[C@]1(C(=O)N[C@H]2C[C@@H](C(=O)O[C@@H](C)COC)C2)CC(c2cc(F)cc(Cl)c2)=NO1 [I-34] |  |  |  |  |  |  |  |  | 60 to 80 | B (B indicates that the inhibition rate was greater than or equal to 60% to less than 80%) | B (B indicates that the inhibition rate was greater than or equal to 60% to less than 80%) | A (A indicates that the inhibition rate was greater than or equal to 80% to 100%) | A (A indicates that the inhibition rate was greater than or equal to 80% to 100%) | A (A indicates that the inhibition rate was greater than or equal to 80% to 100%) | 80 to 100 | 60 to 80
8 | C=C[C@]1(C(=O)N[C@H]2C[C@@H](C(=O)OCC(F)(F)C(F)F)C2)CC(c2cc(F)cc(OC(F)(F)F)c2)=NO1 [I-64] |  |  |  |  |  |  |  |  | 60 to 80 | A (A indicates that the inhibition rate was greater than or equal to 80% to 100%) | A (A indicates that the inhibition rate was greater than or equal to 80% to 100%) | A (A indicates that the inhibition rate was greater than or equal to 80% to 100%) | B (B indicates that the inhibition rate was greater than or equal to 60% to less than 80%) | A (A indicates that the inhibition rate was greater than or equal to 80% to 100%) | 80 to 100 | 
9 | C=C[C@]1(C(=O)N[C@H]2C[C@@H](C(=O)OCCOCC)C2)CC(c2cc(F)cc(OC(F)(F)F)c2)=NO1 [I-65] |  |  |  |  |  |  |  |  | 80 to 100 | A (A indicates that the inhibition rate was greater than or equal to 80% to 100%) | A (A indicates that the inhibition rate was greater than or equal to 80% to 100%) | A (A indicates that the inhibition rate was greater than or equal to 80% to 100%) | B (B indicates that the inhibition rate was greater than or equal to 60% to less than 80%) | A (A indicates that the inhibition rate was greater than or equal to 80% to 100%) | 60 to 80 | 

— patent EP4722201A1, “3-PHENYLISOXAZOLINE-5-CARBOXAMIDE COMPOUND, AND PREPARATION METHOD THEREFOR, HERBICIDAL COMPOSITION THEREOF AND USE THEREOF” (Jiangsu Flag Chemical Industry Co., Ltd, priority 2023, dated 2024)
